Reference: patent US11477982B2, “2-amino-5-oxyalkyl-pyrimidine derivatives and their use for controlling undesired plant growth” (Bayer CropScience Aktiengesellschaft, priority 2017, dated 2022)

Key:
Type in all cases: in vivo
[1] = test system: ABUTH: Abutilon theophrasti; assay: Pre-emergence herbicidal effect; conditions: for Herbicidal action against ABUTH: dosage 320 g/ha
From the text: (§1) 1. Pre-Emergence Herbicidal Effect and Crop Plant Compatibility
(§2) Seeds of monocotyledonous and dicotyledonous weed plants and crop plants are placed in plastic or wood fiber pots and covered with soil. The compounds of the invention, formulated in the form of wettable powders (WP) or as emulsion concentrates (EC), are then applied onto the surface of the covering soil as aqueous suspension or emulsion with addition of 0.5% additive at a water application rate of 600 l/ha (converted).
(§3) After the treatment, the pots are placed in a greenhouse and kept under good growth conditions for the trial plants. After about 3 weeks, the effect of the preparations is scored visually in comparison with untreated controls as percentages. For example, 100% activity=the plants have died, 0% activity=like control plants.

[2] = test system: ALOMY: Alopecurus myosuroides; assay: Pre-emergence herbicidal effect; conditions: for Herbicidal action against ALOMY: dosage 320 g/ha
From the text: as §1, §2, §3

[3] = test system: AMARE: Amaranthus retroflexus; assay: Pre-emergence herbicidal effect; conditions: for Herbicidal action against AMARE: pre-emergence, dosage 320 g/ha
From the text: as §1, §2, §3

AVEFA: Avena fatua = assay: Pre-emergence herbicidal effect; conditions: dosage 320 g/ha
From the text: as §1, §2, §3

[4] = test system: ECHCG: Echinochloa crus-galli; assay: Pre-emergence herbicidal effect; conditions: for Herbicidal action against ECHCG: dosage 320 g/ha
From the text: as §1, §2, §3

HORMU: Hordeum murinum = assay: Pre-emergence herbicidal effect; conditions: for Herbicidal action against HORMU: pre-emergence, dosage 320 g/ha
From the text: as §1, §2, §3

LOLRI: Lolium rigidum = assay: Pre-emergence herbicidal effect; conditions: for Herbicidal action against LOLRI: dosage 320 g/ha
From the text: as §1, §2, §3

[5] = test system: MATIN: Matricaria inodora; assay: Pre-emergence herbicidal effect; conditions: for Herbicidal action against MATIN: pre-emergence, dosage 320 g/ha
From the text: as §1, §2, §3

PHBPU: Ipomoea purpurea = assay: Pre-emergence herbicidal effect; conditions: for Herbicidal action against PHBPU: dosage 320 g/ha
From the text: as §1, §2, §3

[6] = test system: POLCO: Polygonum convolvulus; assay: Pre-emergence herbicidal effect; conditions: for Herbicidal action against POLCO: dosage 320 g/ha
From the text: as §1, §2, §3

SETVI: Setaria viridis [7] = assay: Pre-emergence herbicidal effect; conditions: for Herbicidal action against SETVI: dosage 320 g/ha
From the text: as §1, §2, §3

STEME: Stellaria media [8] = assay: Pre-emergence herbicidal effect; conditions: for Herbicidal action against STEME: pre-emergence, dosage 320 g/ha
From the text: as §1, §2, §3

VERPE: Veronica persica [9] = assay: Pre-emergence herbicidal effect; conditions: dosage 320 g/ha
From the text: as §1, §2, §3

VIOTR: Viola tricolor [10] = assay: Pre-emergence herbicidal effect; conditions: dosage 320 g/ha
From the text: as §1, §2, §3

[11] = test system: ABUTH: Abutilon theophrasti; assay: Post-emergence herbicidal effect; conditions: dosage 320 g/ha
Method: (§4) 2. Post-Emergence Herbicidal Effect and Crop Plant Compatibility
(§5) Seeds of monocotyledonous and dicotyledonous weeds and crop plants are placed in sandy loam in plastic or wood-fiber pots, covered with soil and cultivated in a greenhouse under controlled growth conditions, 2 to 3 weeks after sowing, the test plants are treated at the one-leaf stage. The compounds of the invention, formulated in the form of wettable powders (WP) or as emulsion concentrates (EC), are then sprayed onto the green parts of the plants as aqueous suspension or emulsion with addition of 0.5% additive at a water application rate of 600 l/ha (converted). After the test plants had been kept in the greenhouse under optimum growth conditions for about 3 weeks, the activity of the preparations is rated visually in comparison to untreated controls. For example, 100% activity=the plants have died, 0% activity=like control plants.

[12] = test system: AMARE: Amaranthus retroflexus; assay: Post-emergence herbicidal effect; conditions: dosage 320 g/ha
Method: as §4, §5

[13] = test system: ECHCG: Echinochloa crus-galli; assay: Post-emergence herbicidal effect; conditions: dosage 320 g/ha
Method: as §4, §5

SETVI: Setaria viridis [14] = assay: Post-emergence herbicidal effect; conditions: dosage 320 g/ha
Method: as §4, §5

STEME: Stellaria media [15] = assay: Post-emergence herbicidal effect; conditions: dosage 320 g/ha
Method: as §4, §5

VERPE: Veronica persica [16] = assay: Post-emergence herbicidal effect; conditions: dosage 320 g/ha
Method: as §4, §5

VIOTR: Viola tricolor [17] = assay: Post-emergence herbicidal effect; conditions: dosage 320 g/ha
Method: as §4, §5

[18] = Table 4a, dosage 20 g of a.i./ha
[19] = Table 4a, pre-emergence, dosage 20 g of a.i./ha
[20] = Table 4b, pre-emergence as titled, dosage 80 g of a.i./ha

Row | SMILES | Herbicidal action against ABUTH [1] [%] | Herbicidal action against ALOMY ([2]; pre-emergence) [%] | Herbicidal action against AMARE [3] [%] | Herbicidal action against AVEFA (AVEFA: Avena fatua) [%] | Herbicidal action against ECHCG ([4]; pre-emergence) [%] | Herbicidal action against HORMU (HORMU: Hordeum murinum) [%] | Herbicidal action against LOLRI (LOLRI: Lolium rigidum) [%] | Herbicidal action against MATIN [5] [%] | Herbicidal action against PHBPU (PHBPU: Ipomoea purpurea) [%] | Herbicidal action against POLCO [6] [%] | Herbicidal action against SETVI (SETVI: Setaria viridis [7]; pre-emergence) [%] | Herbicidal action against VERPE (VERPE: Veronica persica [9]) [%] | Herbicidal action against VIOTR (VIOTR: Viola tricolor [10]) [%] | Herbicidal action against ABUTH [11] [%] | Herbicidal action against AMARE [12] [%] | Herbicidal action against ECHCG [13] [%] | Herbicidal action against SETVI (SETVI: Setaria viridis [14]) [%] | Herbicidal action against STEME (STEME: Stellaria media [15]) [%] | Herbicidal action against VERPE (VERPE: Veronica persica [16]) [%] | Herbicidal action against VIOTR (VIOTR: Viola tricolor [17]) [%] | further results
1 | CC1Cc2ccccc2C1Nc1ncc(C(C)(C)O)cn1 (mixture of isomers) [Example 1.55] | 100 | 90 | 100 | 100 | 100 | 100 | 100 | 100 | 90 | 100 | 100 | 100 | 100 | 90 | 90 | 100 | 100 | 90 | 90 | 90 | Herbicidal action against STEME (STEME: Stellaria media [8]): 100%
2 | Cc1ccc2c(c1)C(Nc1ncc(C(C)(C)O)cn1)CCC2 (racemic) [Example 1.43] | 100 | 100 | 100 | 100 | 100 | 100 | 100 | 100 | 100 | 100 | 100 | 100 | 100 | 90 | 90 | 100 | 90 | 100 | 90 | 90 | Herbicidal action against STEME (STEME: Stellaria media [8]): 100%
3 | Cc1ccc2c(c1)C(Nc1ncc(C(C)(C)O)c(C)n1)CCC2 (racemic) [Example 1.52] | 100 | 100 | 100 | 100 | 100 | 100 | 100 | 100 | 100 | 100 | 100 | 100 | 100 | 90 | 90 | 100 | 80 | 100 | 90 | 90 | Herbicidal efficacy against ABUTH [1, 18]: 100; Herbicidal efficacy against ALOMY [2, 19]: 90; Herbicidal efficacy against ALOMY [2, 20]: 90; Herbicidal efficacy against AMARE [3, 20]: 80; Herbicidal efficacy against ECHCG [4, 19]: 100; Herbicidal efficacy against ECHCG [4, 20]: 70; Herbicidal efficacy against HORMU (HORMU: Hordeum murinum; [20]): 90; Herbicidal efficacy against LOLRI (LOLRI: Lolium rigidum; [18]): 60; Herbicidal efficacy against MATIN [5, 20]: 70; Herbicidal efficacy against PHBPU (PHBPU: Ipomoea purpurea; [18]): 100; Herbicidal efficacy against POLCO [6, 18]: 100; Herbicidal efficacy against SETVI (SETVI: Setaria viridis [7]; [19]): 100; Herbicidal efficacy against SETVI (SETVI: Setaria viridis [7]; [20]): 80; Herbicidal efficacy against STEME (STEME: Stellaria media [8]; [20]): 90; Herbicidal action against STEME (STEME: Stellaria media [8]): 100%
4 | CC(C)(O)c1cnc(N[C@@H]2CCc3ccccc32)nc1 [Example 1.30] |  |  | 100 |  |  |  |  | 100 |  | 100 |  | 100 | 100 | 90 | 100 | 100 | 90 | 100 | 80 | 90 | 
5 | Cc1ccc2c(c1)[C@H](Nc1ncc(C(C)(C)O)cn1)CCO2 [Example 1.38] |  |  | 100 |  |  |  |  | 100 |  | 100 |  | 100 | 100 | 90 | 100 | 100 | 90 | 100 | 90 | 90 | 
6 | CCC(O)(c1cnc(N[C@H]2c3cc(C)ccc3C[C@@H]2C)nc1)C(F)(F)F (some centres unmarked) [Example 1.58] |  |  | 100 |  |  |  |  | 100 |  | 100 |  | 100 | 100 | 90 | 90 | 100 | 90 | 90 | 90 | 90 | 
7 | Cc1ccc2c(c1)[C@H](Nc1ncc(C(C)(O)C3(C)CC3)cn1)[C@@H](C)C2 (some centres unmarked) [Example 1.61] | 100 | 100 | 100 | 80 | 100 | 100 | 100 | 100 | 90 | 100 | 100 | 100 | 100 | 90 | 90 | 100 |  | 90 |  |  | Herbicidal action against STEME (STEME: Stellaria media [8]): 100%
